# Key:
# DYRK1B = molecular target: T1, DYRK1B (Homo sapiens, UniProt Q9Y463); assay: KinomeScan; type: binding; conditions: read-out: % control
# T1 construct: purchased DiscoveRx KINOMEscan
# [1] = molecular target: T2, RSK4(Kin.Dom.2-C-terminal) (Homo sapiens, UniProt Q9UK32); assay: KinomeScan; type: binding; conditions: read-out: % control
# T2 construct: RSK4(Kin.Dom.2-C-terminal); purchased DiscoveRx KINOMEscan
# [2] = molecular target: T3, ABL1(T315I)-phosphorylated (Homo sapiens, UniProt P00519, T315I); assay: KinomeScan; type: binding; conditions: read-out: % control
# T3 construct: purchased DiscoveRx KINOMEscan
# [3] = molecular target: T4, RSK4(Kin.Dom.1-N-terminal) (Homo sapiens, UniProt Q9UK32); assay: KinomeScan; type: binding; conditions: read-out: % control
# T4 construct: RSK4(Kin.Dom.1-N-terminal); purchased DiscoveRx KINOMEscan
# VRK2 = molecular target: T5, VRK2 (Homo sapiens, UniProt Q86Y07); assay: KinomeScan; type: binding; conditions: read-out: % control
# T5 construct: purchased DiscoveRx KINOMEscan
# TSSK3 = molecular target: T6, TSSK3 (Homo sapiens, UniProt Q96PN8); assay: KinomeScan; type: binding; conditions: read-out: % control
# T6 construct: purchased DiscoveRx KINOMEscan
# PIK3CA(C420R) = molecular target: T7, PIK3CA(C420R) (Homo sapiens, UniProt P42336, C420R); assay: KinomeScan; type: binding; conditions: read-out: % control
# T7 construct: purchased DiscoveRx KINOMEscan
# WEE2 = molecular target: T8, WEE2 (Homo sapiens, UniProt P0C1S8); assay: KinomeScan; type: binding; conditions: read-out: % control
# T8 construct: purchased DiscoveRx KINOMEscan
# ACVR1 = molecular target: T9, ACVR1 (Homo sapiens, UniProt Q04771); assay: KinomeScan; type: binding; conditions: read-out: % control
# T9 construct: purchased DiscoveRx KINOMEscan
# YANK3 = molecular target: T10, YANK3 (Homo sapiens, UniProt Q86UX6); assay: KinomeScan; type: binding; conditions: read-out: % control
# T10 construct: purchased DiscoveRx KINOMEscan
# PIP5K1A = molecular target: T11, PIP5K1A (Homo sapiens, UniProt Q99755); assay: KinomeScan; type: binding; conditions: read-out: % control
# T11 construct: purchased DiscoveRx KINOMEscan
# PRKX = molecular target: T12, PRKX (Homo sapiens, UniProt P51817); assay: KinomeScan; type: binding; conditions: read-out: % control
# T12 construct: purchased DiscoveRx KINOMEscan
# PCTK2 = molecular target: T13, PCTK2 (Homo sapiens, UniProt Q00537); assay: KinomeScan; type: binding; conditions: read-out: % control
# T13 construct: purchased DiscoveRx KINOMEscan
# FGFR1 = molecular target: T14, FGFR1 (Homo sapiens, UniProt P11362); assay: KinomeScan; type: binding; conditions: read-out: % control
# T14 construct: purchased DiscoveRx KINOMEscan
# BRK = molecular target: T15, BRK (Homo sapiens, UniProt Q13882); assay: KinomeScan; type: binding; conditions: read-out: % control
# T15 construct: purchased DiscoveRx KINOMEscan
# IRAK3 = molecular target: T16, IRAK3 (Homo sapiens, UniProt Q9Y616); assay: KinomeScan; type: binding; conditions: read-out: % control
# T16 construct: purchased DiscoveRx KINOMEscan
# MKNK1 = molecular target: T17, MKNK1 (Homo sapiens, UniProt Q9BUB5); assay: KinomeScan; type: binding; conditions: read-out: % control
# T17 construct: purchased DiscoveRx KINOMEscan
# TNIK = molecular target: T18, TNIK (Homo sapiens, UniProt Q9UKE5); assay: KinomeScan; type: binding; conditions: read-out: % control
# T18 construct: purchased DiscoveRx KINOMEscan
# GCN2(Kin.Dom.2,S808G) = molecular target: T19, GCN2(Kin.Dom.2,S808G) (Homo sapiens, UniProt Q9P2K8, S808G); assay: KinomeScan; type: binding; conditions: read-out: % control
# T19 construct: GCN2(Kin.Dom.2,S808G); purchased DiscoveRx KINOMEscan
# PKN1 = molecular target: T20, PKN1 (Homo sapiens, UniProt Q16512); assay: KinomeScan; type: binding; conditions: read-out: % control
# T20 construct: purchased DiscoveRx KINOMEscan
# BRSK2 = molecular target: T21, BRSK2 (Homo sapiens, UniProt Q8IWQ3); assay: KinomeScan; type: binding; conditions: read-out: % control
# T21 construct: purchased DiscoveRx KINOMEscan
# PIK3CA(E545K) = molecular target: T22, PIK3CA(E545K) (Homo sapiens, UniProt P42336, E545K); assay: KinomeScan; type: binding; conditions: read-out: % control
# T22 construct: purchased DiscoveRx KINOMEscan
# FLT3(N841I) = molecular target: T23, FLT3(N841I) (Homo sapiens, UniProt P36888, N841I); assay: KinomeScan; type: binding; conditions: read-out: % control
# T23 construct: purchased DiscoveRx KINOMEscan
# TNNI3K = molecular target: T24, TNNI3K (Homo sapiens, UniProt Q59H18); assay: KinomeScan; type: binding; conditions: read-out: % control
# T24 construct: purchased DiscoveRx KINOMEscan
# MAP3K1 = molecular target: T25, MAP3K1 (Homo sapiens, UniProt Q13233); assay: KinomeScan; type: binding; conditions: read-out: % control
# T25 construct: purchased DiscoveRx KINOMEscan
# [4] = test system: phosphorylation of STAT3 in HCC827 cells; assay: Signaling pathway examination (immunoblotting); type: cell-based; conditions: Homo sapiens, 4 hours
# Text: We next examined the effects of CHMFL-EGFR-26 on EGFR mediated signaling pathways in NSCLC cell lines with different EGFR mutants. […] As expected, in the EGFR wt expressing NCSCL cell lines A549 and H1355, only autophosphorylation of EGFR was affected and none of the downstream mediators was inhibited.
# Cells were then collected and lysed. Phospho-EGF Receptor, Phospho-EGF Receptor (Tyr1068), Stat3, Phospho-Stat3 (Tyr705), AKT, Phospho-AKT (Ser473), Phospho-AKT (Thr308), p44/42 MAPK (Erk1/2), Phospho-p44/42 MAPK (Erk1/2) (Thr202/ Tyr204), p70 S6 Kinase, Phospho-p70 S6 Kinase (Thr389), eIF4E, Phospho-eIF4E (Ser209), 4E-BP1, Phospho-4E-BP1 (Thr37/46) antibody (Cell Signaling Technology) were used for immunoblotting.
# NEK7 = molecular target: T26, NEK7 (Homo sapiens, UniProt Q8TDX7); assay: KinomeScan; type: binding; conditions: read-out: % control
# T26 construct: purchased DiscoveRx KINOMEscan
# PRKR = molecular target: T27, PRKR (Homo sapiens, UniProt P19525); assay: KinomeScan; type: binding; conditions: read-out: % control
# T27 construct: purchased DiscoveRx KINOMEscan
# CSK = molecular target: T28, CSK (Homo sapiens, UniProt P41240); assay: KinomeScan; type: binding; conditions: read-out: % control
# T28 construct: purchased DiscoveRx KINOMEscan
# PFTAIRE2 = molecular target: T29, PFTAIRE2 (Homo sapiens, UniProt Q96Q40); assay: KinomeScan; type: binding; conditions: read-out: % control
# T29 construct: purchased DiscoveRx KINOMEscan
# KIT(L576P) = molecular target: T30, KIT(L576P) (Homo sapiens, UniProt P10721, L576P); assay: KinomeScan; type: binding; conditions: read-out: % control
# T30 construct: purchased DiscoveRx KINOMEscan
# MAP3K3 = molecular target: T31, MAP3K3 (Homo sapiens, UniProt Q99759); assay: KinomeScan; type: binding; conditions: read-out: % control
# T31 construct: purchased DiscoveRx KINOMEscan
# PIM1 = molecular target: T32, PIM1 (Homo sapiens, UniProt P11309); assay: KinomeScan; type: binding; conditions: read-out: % control
# T32 construct: purchased DiscoveRx KINOMEscan
# EPHB2 = molecular target: T33, EPHB2 (Homo sapiens, UniProt P29323); assay: KinomeScan; type: binding; conditions: read-out: % control
# T33 construct: purchased DiscoveRx KINOMEscan
# EIF2AK1 = molecular target: T34, EIF2AK1 (Homo sapiens, UniProt Q9BQI3); assay: KinomeScan; type: binding; conditions: read-out: % control
# T34 construct: purchased DiscoveRx KINOMEscan
# WEE1 = molecular target: T35, WEE1 (Homo sapiens, UniProt P30291); assay: KinomeScan; type: binding; conditions: read-out: % control
# T35 construct: purchased DiscoveRx KINOMEscan
# T16 sequence (Q9Y616 whole entry): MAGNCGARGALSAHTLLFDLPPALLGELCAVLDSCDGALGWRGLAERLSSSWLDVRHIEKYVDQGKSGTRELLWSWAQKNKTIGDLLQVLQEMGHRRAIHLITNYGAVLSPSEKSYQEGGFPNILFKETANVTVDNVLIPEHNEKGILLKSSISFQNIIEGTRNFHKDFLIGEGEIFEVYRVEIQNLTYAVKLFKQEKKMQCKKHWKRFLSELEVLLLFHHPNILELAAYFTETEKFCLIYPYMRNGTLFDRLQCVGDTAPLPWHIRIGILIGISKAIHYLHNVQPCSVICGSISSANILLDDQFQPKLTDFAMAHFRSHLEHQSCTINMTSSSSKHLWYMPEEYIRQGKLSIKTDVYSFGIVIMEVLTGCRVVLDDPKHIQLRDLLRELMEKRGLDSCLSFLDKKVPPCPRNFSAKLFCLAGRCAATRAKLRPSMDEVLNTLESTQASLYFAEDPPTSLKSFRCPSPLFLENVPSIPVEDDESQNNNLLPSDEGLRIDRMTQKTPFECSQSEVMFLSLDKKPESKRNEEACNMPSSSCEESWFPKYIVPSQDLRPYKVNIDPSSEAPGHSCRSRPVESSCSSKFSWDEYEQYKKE
# T14 sequence (P11362 22-822): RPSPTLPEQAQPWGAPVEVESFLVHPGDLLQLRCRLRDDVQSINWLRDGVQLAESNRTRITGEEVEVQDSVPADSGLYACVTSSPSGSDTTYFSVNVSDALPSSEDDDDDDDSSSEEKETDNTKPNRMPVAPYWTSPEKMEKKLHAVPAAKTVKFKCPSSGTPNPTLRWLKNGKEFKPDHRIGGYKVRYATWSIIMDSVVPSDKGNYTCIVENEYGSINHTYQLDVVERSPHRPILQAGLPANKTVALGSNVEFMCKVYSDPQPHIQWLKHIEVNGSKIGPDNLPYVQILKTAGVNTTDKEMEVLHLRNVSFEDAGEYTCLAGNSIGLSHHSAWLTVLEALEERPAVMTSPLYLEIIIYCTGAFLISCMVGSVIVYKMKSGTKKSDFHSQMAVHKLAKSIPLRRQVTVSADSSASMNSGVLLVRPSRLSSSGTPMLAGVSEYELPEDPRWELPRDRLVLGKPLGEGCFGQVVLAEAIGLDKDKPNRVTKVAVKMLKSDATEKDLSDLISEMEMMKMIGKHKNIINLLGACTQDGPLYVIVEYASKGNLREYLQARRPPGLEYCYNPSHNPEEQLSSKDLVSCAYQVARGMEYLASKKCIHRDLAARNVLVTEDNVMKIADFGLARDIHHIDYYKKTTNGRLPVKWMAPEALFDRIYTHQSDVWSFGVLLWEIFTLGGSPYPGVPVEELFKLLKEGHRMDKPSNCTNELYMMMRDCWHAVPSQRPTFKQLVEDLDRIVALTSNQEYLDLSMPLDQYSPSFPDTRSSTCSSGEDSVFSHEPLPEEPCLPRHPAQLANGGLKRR
# T33 sequence (P29323 19-1055): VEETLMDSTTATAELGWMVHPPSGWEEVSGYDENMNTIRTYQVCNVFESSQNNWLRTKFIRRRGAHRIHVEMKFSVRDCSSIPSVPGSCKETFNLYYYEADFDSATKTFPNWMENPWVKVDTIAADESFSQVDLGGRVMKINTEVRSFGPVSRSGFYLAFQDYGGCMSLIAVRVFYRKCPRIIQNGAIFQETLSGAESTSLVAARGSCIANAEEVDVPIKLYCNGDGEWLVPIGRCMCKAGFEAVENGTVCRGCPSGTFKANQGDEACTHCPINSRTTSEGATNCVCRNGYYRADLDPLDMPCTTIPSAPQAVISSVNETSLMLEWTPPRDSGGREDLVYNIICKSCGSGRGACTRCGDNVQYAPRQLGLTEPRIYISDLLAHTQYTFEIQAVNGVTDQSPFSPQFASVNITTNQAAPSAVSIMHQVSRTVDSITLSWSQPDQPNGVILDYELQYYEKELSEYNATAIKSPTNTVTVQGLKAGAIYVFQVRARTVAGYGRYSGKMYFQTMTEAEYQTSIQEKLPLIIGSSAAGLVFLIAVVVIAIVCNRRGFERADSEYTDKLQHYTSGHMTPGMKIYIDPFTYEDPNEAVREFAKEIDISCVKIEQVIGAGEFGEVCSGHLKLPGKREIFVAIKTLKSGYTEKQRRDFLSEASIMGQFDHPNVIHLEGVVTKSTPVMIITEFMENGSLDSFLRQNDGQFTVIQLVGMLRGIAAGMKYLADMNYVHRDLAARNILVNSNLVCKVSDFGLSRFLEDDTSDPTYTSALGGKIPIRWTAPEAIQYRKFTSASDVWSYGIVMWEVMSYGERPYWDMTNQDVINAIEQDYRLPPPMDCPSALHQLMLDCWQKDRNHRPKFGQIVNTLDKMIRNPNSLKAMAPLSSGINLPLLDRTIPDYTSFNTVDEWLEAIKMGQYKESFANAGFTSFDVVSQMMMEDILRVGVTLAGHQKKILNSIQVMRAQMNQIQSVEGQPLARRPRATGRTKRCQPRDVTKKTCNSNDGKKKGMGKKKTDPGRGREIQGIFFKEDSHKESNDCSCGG
# T2 sequence (Q9UK32 401-745 limits assumed): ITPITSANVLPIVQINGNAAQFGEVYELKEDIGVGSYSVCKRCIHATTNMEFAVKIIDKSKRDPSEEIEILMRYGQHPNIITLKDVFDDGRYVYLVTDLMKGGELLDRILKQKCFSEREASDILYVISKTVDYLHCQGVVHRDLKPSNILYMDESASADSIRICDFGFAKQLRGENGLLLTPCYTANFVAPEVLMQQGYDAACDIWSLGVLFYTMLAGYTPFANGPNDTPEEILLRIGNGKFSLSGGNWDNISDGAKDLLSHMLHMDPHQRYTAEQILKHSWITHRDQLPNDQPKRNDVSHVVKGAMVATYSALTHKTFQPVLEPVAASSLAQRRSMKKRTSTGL
# T31 sequence (Q99759 whole entry): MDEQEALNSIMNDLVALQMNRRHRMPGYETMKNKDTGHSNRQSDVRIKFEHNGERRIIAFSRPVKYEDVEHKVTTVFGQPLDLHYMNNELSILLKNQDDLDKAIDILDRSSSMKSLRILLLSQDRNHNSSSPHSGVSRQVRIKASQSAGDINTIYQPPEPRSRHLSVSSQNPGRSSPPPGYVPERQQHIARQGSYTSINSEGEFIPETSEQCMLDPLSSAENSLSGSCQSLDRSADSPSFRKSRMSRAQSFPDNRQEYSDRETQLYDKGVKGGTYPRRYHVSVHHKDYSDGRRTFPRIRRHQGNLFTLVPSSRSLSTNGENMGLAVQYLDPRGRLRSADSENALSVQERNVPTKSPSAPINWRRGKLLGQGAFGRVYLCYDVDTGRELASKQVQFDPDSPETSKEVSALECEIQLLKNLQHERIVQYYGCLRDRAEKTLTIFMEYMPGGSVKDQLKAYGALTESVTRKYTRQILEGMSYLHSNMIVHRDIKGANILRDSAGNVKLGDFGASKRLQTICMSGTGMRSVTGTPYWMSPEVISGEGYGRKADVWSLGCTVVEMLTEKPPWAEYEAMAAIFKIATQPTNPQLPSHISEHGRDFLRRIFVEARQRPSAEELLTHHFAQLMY
# T25 sequence (Q13233 whole entry): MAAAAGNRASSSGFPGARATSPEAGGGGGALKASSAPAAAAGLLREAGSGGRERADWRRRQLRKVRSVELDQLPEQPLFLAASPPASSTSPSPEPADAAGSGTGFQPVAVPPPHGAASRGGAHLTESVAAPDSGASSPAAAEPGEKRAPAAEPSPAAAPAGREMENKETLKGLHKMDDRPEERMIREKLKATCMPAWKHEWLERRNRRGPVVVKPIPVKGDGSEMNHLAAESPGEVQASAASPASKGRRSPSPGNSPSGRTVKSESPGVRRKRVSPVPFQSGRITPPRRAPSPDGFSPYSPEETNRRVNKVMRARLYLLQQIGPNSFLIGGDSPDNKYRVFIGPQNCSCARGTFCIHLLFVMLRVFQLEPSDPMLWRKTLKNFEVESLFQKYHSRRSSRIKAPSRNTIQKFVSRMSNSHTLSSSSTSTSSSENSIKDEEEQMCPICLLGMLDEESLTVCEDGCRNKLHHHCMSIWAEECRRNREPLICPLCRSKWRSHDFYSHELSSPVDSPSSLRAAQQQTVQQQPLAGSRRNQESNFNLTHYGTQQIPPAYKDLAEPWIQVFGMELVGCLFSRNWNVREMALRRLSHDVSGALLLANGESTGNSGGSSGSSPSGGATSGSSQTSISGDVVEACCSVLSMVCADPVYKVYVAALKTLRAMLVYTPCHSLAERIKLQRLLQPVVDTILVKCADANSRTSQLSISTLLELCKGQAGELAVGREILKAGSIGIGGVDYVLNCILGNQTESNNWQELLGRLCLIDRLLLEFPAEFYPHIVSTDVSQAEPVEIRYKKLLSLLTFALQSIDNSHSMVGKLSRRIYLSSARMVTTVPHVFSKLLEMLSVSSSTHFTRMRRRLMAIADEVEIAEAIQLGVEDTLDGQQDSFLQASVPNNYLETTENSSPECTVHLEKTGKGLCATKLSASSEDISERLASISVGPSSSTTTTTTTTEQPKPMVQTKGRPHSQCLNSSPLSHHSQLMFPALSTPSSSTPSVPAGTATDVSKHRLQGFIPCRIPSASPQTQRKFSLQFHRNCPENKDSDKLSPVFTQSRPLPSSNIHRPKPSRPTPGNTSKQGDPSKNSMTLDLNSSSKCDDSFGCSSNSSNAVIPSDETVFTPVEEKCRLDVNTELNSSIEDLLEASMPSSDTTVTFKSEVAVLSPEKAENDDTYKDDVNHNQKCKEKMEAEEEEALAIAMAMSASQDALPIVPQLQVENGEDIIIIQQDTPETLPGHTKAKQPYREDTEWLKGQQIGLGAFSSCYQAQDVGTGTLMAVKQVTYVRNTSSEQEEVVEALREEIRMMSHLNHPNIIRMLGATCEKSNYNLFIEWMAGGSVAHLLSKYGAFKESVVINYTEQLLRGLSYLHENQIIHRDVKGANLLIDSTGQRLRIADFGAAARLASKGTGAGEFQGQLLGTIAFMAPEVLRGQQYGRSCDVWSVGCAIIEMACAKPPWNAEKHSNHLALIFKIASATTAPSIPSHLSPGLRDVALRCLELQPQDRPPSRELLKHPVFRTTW
smiles,measurement,setting,value
C=CC(=O)N1CCC[C@@H](n2nc(-c3ccc(OCc4cccc(C)n4)c(Cl)c3)c3c(N)ncnc32)C1 [CHMFL-EGFR-26],remaining binding at 1 µM,DYRK1B,85%
same,remaining binding at 1 µM,[1],72%
same,remaining binding at 1 µM,[2],98%
same,remaining binding at 1 µM,[3],100%
same,remaining binding at 1 µM,VRK2,95%
same,remaining binding at 1 µM,TSSK3,100%
same,remaining binding at 1 µM,PIK3CA(C420R),100%
same,remaining binding at 1 µM,WEE2,84%
same,remaining binding at 1 µM,ACVR1,96%
same,remaining binding at 1 µM,YANK3,90%
same,remaining binding at 1 µM,PIP5K1A,100%
same,remaining binding at 1 µM,PRKX,81%
same,remaining binding at 1 µM,PCTK2,89%
same,remaining binding at 1 µM,FGFR1,100%
same,remaining binding at 1 µM,BRK,26%
same,remaining binding at 1 µM,IRAK3,94%
same,remaining binding at 1 µM,MKNK1,100%
same,remaining binding at 1 µM,TNIK,11%
same,remaining binding at 1 µM,"GCN2(Kin.Dom.2,S808G)",90%
same,remaining binding at 1 µM,PKN1,99%
same,remaining binding at 1 µM,BRSK2,97%
same,remaining binding at 1 µM,PIK3CA(E545K),81%
same,remaining binding at 1 µM,FLT3(N841I),93%
same,remaining binding at 1 µM,TNNI3K,89%
same,remaining binding at 1 µM,MAP3K1,82%
same,EC50,[4],< 10 nM
same,remaining binding at 1 µM,NEK7,90%
same,remaining binding at 1 µM,PRKR,80%
same,remaining binding at 1 µM,CSK,32%
same,remaining binding at 1 µM,PFTAIRE2,97%
same,remaining binding at 1 µM,KIT(L576P),91%
same,remaining binding at 1 µM,MAP3K3,67%
same,remaining binding at 1 µM,PIM1,97%
same,remaining binding at 1 µM,EPHB2,100%
same,remaining binding at 1 µM,EIF2AK1,100%
same,remaining binding at 1 µM,WEE1,85%
